Experimental findings from ChEMBL document CHEMBL1201862, “PubChem BioAssay data set” (2004) are described below.

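96-well plates; 48 h exposure; 5 concentrations. Endpoints by linear interpolation between flanking doses. Not reached: highest tested concentration assigned. The concentration for 50% growth inhibition is given as GI50.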 Calls of active or inactive are those of the source. No stated cut-off is given here; in the data, active = GI50 up to about 1.1 µM and inactive = higher.

Among the test systems are Malme-3M; UO-31; SK-OV-3; SK-MEL-5; MDA-MB-435; OVCAR-5; MCF7; SF-268; EKVX; 786-0; CCRF-CEM; MOLT-4; UACC-62; NCI-H23; NCI-H226; SNB-75; SNB-19; CAKI-1; Hs-578T.
Common to all, as to assay: NCI tumour cell line growth inhibition, 48 h

For `Cc1nnc(N)nc1C/C=C/C(C)Sc1ccc(Cl)cc1` (centres undefined), the GI50 in the assay on Malme-3M is 13.2 µM (inactive); with UO-31 it was 3.49 µM (inactive); in the assay with SK-OV-3 it was 4.52 µM (inactive); in the assay on SK-MEL-5, 6.08 µM (inactive); in the assay on MDA-MB-435, 7.73 µM (inactive); in the assay on OVCAR-5, 10.9 µM (inactive). The GI50 in the assay with MCF7 is 5.28 µM (inactive); with SF-268, 3.78 µM (inactive); with EKVX it was 4.61 µM (inactive); in the assay with 786-0, 8.41 µM (inactive); with CCRF-CEM it was 2.33 µM (inactive); with MOLT-4 it was 3.7 µM (inactive). Further, the GI50 with UACC-62 was 5.33 µM (inactive); in the assay on NCI-H23, 5.47 µM (inactive); in the assay with NCI-H226, 2.04 µM (inactive); in the assay with SNB-75 it was 6.01 µM (inactive); with SNB-19 it was 5.58 µM (inactive); in the assay on CAKI-1, 7.94 µM (inactive). In the assay on Hs-578T, the GI50 was 7.14 µM (inactive).
In the case of `COc1ccc(NC(=O)C(=O)Cc2nc3ccc(C(=O)c4ccccc4)cc3nc2O)c([N+](=O)[O-])c1`, the GI50 with Malme-3M is 53.6 µM (inactive); in the assay on UO-31, 18.2 µM (inactive); with SK-OV-3, 52 µM (inactive); in the assay with SK-MEL-5, 22.6 µM (inactive); in the assay on MDA-MB-435, 12.1 µM (inactive); in the assay on OVCAR-5, > 100 µM (inactive). In addition, the GI50 was 41.6 µM (inactive) with MCF7; 34.8 µM (inactive) with SF-268; 28.3 µM (inactive) in the assay on EKVX; 39.1 µM (inactive) in the assay on 786-0; 28.2 µM (inactive) in the assay on CCRF-CEM; 17.6 µM (inactive) with MOLT-4. In addition, the GI50 was 21.3 µM (inactive) in the assay on UACC-62; 20.5 µM (inactive) with NCI-H23; 11.5 µM (inactive) in the assay with NCI-H226; 17.7 µM (inactive) with SNB-75; 62.8 µM (inactive) with SNB-19; 14.9 µM (inactive) with CAKI-1. Moreover, in the assay on Hs-578T, the GI50 is > 100 µM (inactive).
Regarding `CCCCNC(=S)N/N=C/c1cccc(C)n1`, the GI50 in the assay on Malme-3M was 52.2 µM (inactive); in the assay with UO-31, 29 µM (inactive); in the assay with SK-OV-3, 59.8 µM (inactive); with SK-MEL-5, 43 µM (inactive); in the assay with MDA-MB-435, 42.2 µM (inactive); in the assay on OVCAR-5 it was 43.2 µM (inactive). Also, the GI50 was 37.8 µM (inactive) with MCF7; 34 µM (inactive) with SF-268; 24.8 µM (inactive) with EKVX; 35.2 µM (inactive) in the assay with 786-0; 6.9 µM (inactive) in the assay with CCRF-CEM; 10.7 µM (inactive) with MOLT-4. In addition, the GI50 with UACC-62 is 25.6 µM (inactive); in the assay on NCI-H23, 59.3 µM (inactive); in the assay with NCI-H226, 27.8 µM (inactive); in the assay with SNB-75 it was 67.6 µM (inactive); in the assay on SNB-19, 39.3 µM (inactive); in the assay on CAKI-1, 33.9 µM (inactive). Moreover, the GI50 with Hs-578T is > 100 µM (inactive).
In the case of `C/C(=N/NC(=S)Nc1cccc(C)c1)c1ccccn1`, the GI50 with Malme-3M is 0.319 µM (active); in the assay on UO-31 it was 0.285 µM (active); with SK-OV-3 it was 0.025 µM (active); in the assay with SK-MEL-5, 0.061 µM (active); in the assay on MDA-MB-435, 1.35 µM (inactive); with OVCAR-5, 0.0392 µM (active). Moreover, the GI50 in the assay with MCF7 was < 0.01 µM (active); in the assay on SF-268, 0.21 µM (active); with EKVX, 0.0685 µM (active); in the assay with 786-0 it was 0.0217 µM (active); in the assay with CCRF-CEM, < 0.01 µM (active); with MOLT-4, < 0.01 µM (active). The GI50 was 0.331 µM (active) with UACC-62; < 0.01 µM (active) in the assay with NCI-H23; 0.0582 µM (active) with NCI-H226; 2.11 µM (inactive) with SNB-75; 0.977 µM (active) in the assay on SNB-19; < 0.0532 µM (active) with CAKI-1. Also, in the assay with Hs-578T, the GI50 was 3.82 µM (inactive).
As for `COCCOCc1nc(C#N)c(N)o1`, the GI50 with Malme-3M, with UO-31, in the assay on SK-OV-3, in the assay on SK-MEL-5, in the assay with MDA-MB-435 and in the assay on OVCAR-5 was > 100 µM (inactive) in each case. Besides, the GI50 in the assay on MCF7, in the assay on SF-268, with EKVX, with 786-0, in the assay on CCRF-CEM and with MOLT-4 was > 100 µM (inactive) each time. The GI50 in the assay with UACC-62, with NCI-H23, with NCI-H226, in the assay on SNB-75, in the assay with SNB-19 and in the assay on CAKI-1 was > 100 µM (inactive) throughout. Also, the GI50 in the assay with Hs-578T was > 100 µM (inactive).
Turning to `Cn1c2ccccc2c2c3c(=O)[nH][nH]c(=O)c3c3c4ccccc4n(C)c3c21`, the GI50 with Malme-3M, in the assay on UO-31, with SK-OV-3, in the assay with SK-MEL-5, in the assay on MDA-MB-435 and with OVCAR-5 was > 100 µM (inactive) each time. The GI50 is 0.133 µM (active) with MCF7; > 100 µM (inactive) in the assay with SF-268; > 100 µM (inactive) in the assay on EKVX; > 100 µM (inactive) with 786-0; 0.655 µM (active) with CCRF-CEM; > 100 µM (inactive) in the assay on MOLT-4. Further, the GI50 in the assay on UACC-62 was > 100 µM (inactive); with NCI-H23, 12.5 µM (inactive); with NCI-H226, > 100 µM (inactive); in the assay on SNB-75 it was > 100 µM (inactive); in the assay on SNB-19 it was > 100 µM (inactive); with CAKI-1, > 100 µM (inactive). Moreover, the GI50 in the assay with Hs-578T is > 100 µM (inactive).
With `Nc1ccccc1OCCCOc1ccccc1N`, the GI50 with Malme-3M is > 100 µM (inactive); with UO-31 it was > 100 µM (inactive); with SK-OV-3, > 100 µM (inactive); with SK-MEL-5, 78.3 µM (inactive); with MDA-MB-435, 57.1 µM (inactive); with OVCAR-5, > 100 µM (inactive). In addition, the GI50 with MCF7, in the assay on SF-268, in the assay on EKVX, in the assay on 786-0, in the assay on CCRF-CEM and in the assay on MOLT-4 was > 100 µM (inactive) throughout. The GI50 with UACC-62, in the assay with NCI-H23, in the assay with NCI-H226, in the assay with SNB-75, in the assay with SNB-19 and in the assay with CAKI-1 was > 100 µM (inactive) throughout. Besides, the GI50 in the assay on Hs-578T was > 100 µM (inactive).
`C=C1C(=O)O[C@H]2[C@@H](O)[C@H](C)CCC/C(C)=C/CC[C@@]3(C)O[C@@H]3C[C@@H]12`: the GI50 in the assay with Malme-3M was 11.5 µM (inactive); in the assay with UO-31, 5.47 µM (inactive); in the assay on SK-OV-3, 18.5 µM (inactive); in the assay with SK-MEL-5, 11.8 µM (inactive); with MDA-MB-435, 7.5 µM (inactive); in the assay with OVCAR-5, 15.7 µM (inactive). Besides, the GI50 was 7.18 µM (inactive) in the assay with MCF7; 8.22 µM (inactive) with SF-268; 4.22 µM (inactive) with EKVX; 3.61 µM (inactive) in the assay with 786-0; 1.07 µM (active) in the assay on CCRF-CEM; 2.29 µM (inactive) with MOLT-4. Besides, the GI50 was 9.79 µM (inactive) with UACC-62; 8.75 µM (inactive) in the assay with NCI-H23; 1.53 µM (inactive) in the assay with NCI-H226; 15.1 µM (inactive) in the assay with SNB-75; 16.7 µM (inactive) in the assay on SNB-19; 2.33 µM (inactive) in the assay on CAKI-1. In the assay on Hs-578T, the GI50 was 14.7 µM (inactive).
Consider `COc1ccc(/C(=N/N=c2\[nH]c3ccccc3n2Cc2ccccc2)C(=O)O)cc1`, for which the GI50 with Malme-3M was 17.6 µM (inactive); in the assay on UO-31, 25.8 µM (inactive); in the assay on SK-OV-3, 13.7 µM (inactive); in the assay on SK-MEL-5 it was 15.5 µM (inactive); in the assay on MDA-MB-435, 21.1 µM (inactive); in the assay with OVCAR-5 it was 48.5 µM (inactive). In addition, the GI50 in the assay with MCF7 is 13.2 µM (inactive); with SF-268 it was 7.5 µM (inactive); in the assay with EKVX it was 31.3 µM (inactive); in the assay with 786-0 it was 5.12 µM (inactive); in the assay with CCRF-CEM, 3.97 µM (inactive); in the assay on MOLT-4 it was 7.8 µM (inactive). For the same molecule, the GI50 was 8.36 µM (inactive) in the assay with UACC-62; 14.1 µM (inactive) in the assay on NCI-H23; 20.2 µM (inactive) with NCI-H226; 18.3 µM (inactive) in the assay with SNB-75; 25.7 µM (inactive) with SNB-19; 16.7 µM (inactive) in the assay with CAKI-1. In the assay with Hs-578T, the GI50 is 31.7 µM (inactive).
As for `CN(C)C(=S)/N=c1\ssc(=S)n1Cc1cccs1`, the GI50 in the assay with Malme-3M is 2.4 µM (inactive); in the assay on UO-31, 6.28 µM (inactive); with SK-OV-3, 3.46 µM (inactive); in the assay with SK-MEL-5 it was 1.04 µM (active); in the assay with MDA-MB-435 it was 0.658 µM (active); with OVCAR-5, > 55.3 µM (inactive). Further, the GI50 with MCF7 is 1.99 µM (inactive); in the assay on SF-268, 5.45 µM (inactive); in the assay on EKVX, 26.2 µM (inactive); in the assay with 786-0 it was 3.83 µM (inactive); in the assay with CCRF-CEM, 6.46 µM (inactive); in the assay on MOLT-4, 17.5 µM (inactive). In addition, the GI50 in the assay on UACC-62 was 2.7 µM (inactive); with NCI-H23, 3.75 µM (inactive); in the assay on NCI-H226 it was 13.7 µM (inactive); with SNB-75, 1.52 µM (inactive); with SNB-19 it was 6.05 µM (inactive); in the assay with CAKI-1 it was 3.11 µM (inactive). Further, the GI50 in the assay on Hs-578T was 1.51 µM (inactive).
For `CCCCOCCOC1=C(Cl)C(=O)c2c(O)ccc(O)c2C1=O`, the GI50 in the assay on Malme-3M was 0.259 µM (active); with UO-31 it was 0.748 µM (active); in the assay with SK-OV-3, 2.98 µM (inactive); in the assay on SK-MEL-5 it was 0.733 µM (active); in the assay on MDA-MB-435 it was 0.325 µM (active); in the assay with OVCAR-5, 1.37 µM (inactive). For the same molecule, the GI50 in the assay on MCF7 is 0.285 µM (active); in the assay with SF-268 it was 1.6 µM (inactive); with EKVX it was 2.94 µM (inactive); in the assay with 786-0 it was 0.229 µM (active); in the assay with CCRF-CEM it was 0.0274 µM (active); in the assay on MOLT-4, 0.051 µM (active). Also, the GI50 is 1.12 µM (active) in the assay with UACC-62; 0.42 µM (active) with NCI-H23; 2.26 µM (inactive) in the assay with NCI-H226; 0.687 µM (active) with SNB-75; 1.36 µM (inactive) in the assay with SNB-19; 0.407 µM (active) with CAKI-1. For the same molecule, the GI50 in the assay on Hs-578T was 2.49 µM (inactive).
